The values below come from ChEMBL document CHEMBL2073792, “Hepatic uptake of the magnetic resonance imaging contrast agent gadoxetate by the organic anion transporting polypeptide Oatp1” (J Pharmacol Exp Ther, 1999).

What all share (assay type): functional, cell-based
What all share (conditions): oocyte

Data set [1] concerns the target T1, Solute carrier organic anion transporter family member 1A1 (Rattus norvegicus, UniProt P46720).
T1 sequence (P46720 whole entry): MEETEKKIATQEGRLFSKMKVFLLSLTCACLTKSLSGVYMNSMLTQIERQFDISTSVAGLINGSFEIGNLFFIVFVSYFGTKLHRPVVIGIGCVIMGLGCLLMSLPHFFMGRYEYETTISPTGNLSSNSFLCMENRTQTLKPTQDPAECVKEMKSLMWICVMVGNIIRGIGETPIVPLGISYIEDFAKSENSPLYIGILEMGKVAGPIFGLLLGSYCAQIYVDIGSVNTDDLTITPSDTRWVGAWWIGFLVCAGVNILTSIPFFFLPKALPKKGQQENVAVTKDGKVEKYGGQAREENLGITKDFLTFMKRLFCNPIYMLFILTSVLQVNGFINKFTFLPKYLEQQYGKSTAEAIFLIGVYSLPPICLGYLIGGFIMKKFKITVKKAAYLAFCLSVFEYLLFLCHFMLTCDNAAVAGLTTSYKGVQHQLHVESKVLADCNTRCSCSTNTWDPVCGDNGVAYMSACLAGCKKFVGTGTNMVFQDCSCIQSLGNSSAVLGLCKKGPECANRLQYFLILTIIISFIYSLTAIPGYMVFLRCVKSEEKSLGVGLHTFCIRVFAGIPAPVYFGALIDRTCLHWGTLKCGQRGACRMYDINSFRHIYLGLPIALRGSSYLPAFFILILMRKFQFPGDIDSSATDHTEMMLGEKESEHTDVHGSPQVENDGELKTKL
The data set can be described thus: TP_TRANSPORTER: inhibition of Gadoxetate uptake (Gadoxetate: 100 uM, Rifampicin: 100 uM) in Xenopus laevis oocytes.

The target of data set [2] is T1, Solute carrier organic anion transporter family member 1A1. The data set can be described thus: TP_TRANSPORTER: inhibition of Gadoxetate uptake (Gadoxetate: 100 uM, Rifamycin SV: 100 uM) in Xenopus laevis oocytes.
Data set [3] shares this target. Put plainly: TP_TRANSPORTER: inhibition of Gadoxetate uptake (Gadoxetate: 100 uM, BSP: 10 uM) in Xenopus laevis oocytes.
For data set [4] the target is unchanged. Put plainly: TP_TRANSPORTER: uptake in Xenopus laevis oocytes.

For the compound `CO[C@H]1/C=C/O[C@@]2(C)Oc3c(C)c(O)c4c(O)c(c(/C=N/N5CCN(C)CC5)c(O)c4c3C2=O)NC(=O)/C(C)=C\C=C\[C@H](C)[C@H](O)[C@@H](C)[C@@H](O)[C@@H](C)[C@H](OC(C)=O)[C@@H]1C` [RIFAMPIN], the Activity result in data set [1] was “inhibitor [(at a rough estimate) 50 % of control]”. As to `CO[C@H]1/C=C/O[C@@]2(C)Oc3c(C)c(O)c4c(O)c(cc(O)c4c3C2=O)NC(=O)/C(C)=C\C=C\[C@H](C)[C@H](O)[C@@H](C)[C@@H](O)[C@@H](C)[C@H](OC(C)=O)[C@@H]1C` [RIFAMYCIN], the Activity result in data set [2] was “inhibitor [(at a rough estimate) <5 % of control]”. In the case of `O=C1OC(c2ccc(O)c(S(=O)(=O)[O-])c2)(c2ccc(O)c(S(=O)(=O)[O-])c2)c2c(Br)c(Br)c(Br)c(Br)c21.[Na+].[Na+]` [SULFOBROMOPHTHALEIN SODIUM], the Activity result in data set [3] is “inhibitor [(at a rough estimate) 55 % of control]”.

Broadly, the Km is the concentration of substrate that gives half-maximal velocity. GADOXETATE: in data set [4], the Km amounted to 3.3 mM.
